According to patent US20240166652A1, “MODULATORS OF THE INTEGRATED STRESS PATHWAY” (Calico Life Sciences LLC, priority 2017, published 2024):

Test system: ATF4 luciferase reporter in HEK293T cells
Test: ATF4-Luc assay (ATF4 luciferase reporter, tunicamycin-treated HEK293T cells)
Format: cell-based, human
Details: HEK293T cells carrying the ATF4 luciferase reporter, 1 μg/mL tunicamycin, 7 hours
Experimental: In order to test exemplary compounds of the invention in a cellular context, a stable VWMD cell line was first constructed. The ATF4 reporter was prepared by fusing the human full-length ATF4 5′-UTR (NCBI Accession No. BC022088.2) in front of the firefly luciferase (FLuc) coding sequence lacking the initiator methionine as described in Sidrauski et al (eLife 2013). The construct was used to produce recombinant retroviruses using standard methods and the resulting viral supernatant was used to transduce HEK293T cells, which were then subsequently selected with puromycin to generate a stable cell line.
HEK293T cells carrying the ATF4 luciferase reporter were plated on polylysine coated 384-well plates (Greiner Bio-one) at 30,000 cells per well. Cells were treated the next day with 1 μg/mL tunicamycin and 200 nM of a compound of Formula (I) for 7 hours. Luminescence was measured using One Glo (Promega) as specified by the manufacturer. Cells were maintained in DMEM with L-glutamine supplemented with 10% heat-inactivated FBS (Gibco) and Antibiotic-Antimycotic solution (Gibco).
Table 2 below summarizes the EC50 data obtained using the ATF4-Luc assay for exemplary compounds of the invention.

Compound | EC50 [nM]
O=C(COc1ccc(Cl)c(F)c1)NC12CCC(NC(=O)COc3ccc(C(F)(F)F)nc3)(CC1)C(F)C2 (single isomer, unassigned) [Compound 373] | 50 to 250

Same assay, conditions: Homo sapiens, HEK-293T; HEK293T cells carrying the ATF4 luciferase reporter, 1 μg/mL tunicamycin, 7 hours

Compound | EC50 [nM]
Cc1ccc(OCC(=O)NC23CCC(NC(=O)COc4ccc(Cl)c(F)c4)(CC2)[C@@H](O)C3)cc1F [Compound 737, 2-(4-chloro-3-fluorophenoxy)-N-{(2S)-4-[2-(3-fluoro-4-methylphenoxy)acetamido]-2-hydroxybicyclo[2.2.2]octan-1-yl}acetamide] | < 10
N#Cc1cccc(COCC(=O)NC23CC(NC(=O)COc4ccc(Cl)c(F)c4)(C2)C3)c1 [Compound 138, 2-(4-chloro-3-fluorophenoxy)-N-(3-{2-[(3-cyanophenyl)methoxy]acetamido}-bicyclo[1.1.1]pentan-1-yl)acetamide] | 250 to 500
O=C(COc1ccc(Cl)c(F)c1)NC12CCC(NC(=O)COc3cccc(C(F)(F)F)c3)(CC1)[C@@H](O)C2 [Compound 501, 2-(4-chloro-3-fluorophenoxy)-N-[(3S)-3-hydroxy-4-{2-[3-(trifluoromethyl)phenoxy]acetamido}bicyclo[2.2.2]octan-1-yl]acetamide] | < 10
O=C(COc1ccc(Cl)c(F)c1)NC12CCC(NC(=O)NCc3ccc(Cl)c(F)c3)(CC1)C[C@@H]2O [Compound 576, 2-(4-chloro-3-fluorophenoxy)-N-[(2S)-4-({[(4-chloro-3-fluorophenyl)methyl]carbamoyl}amino)-2-hydroxybicyclo[2.2.2]octan-1-yl]acetamide] | 10 to 50
O=C(COc1ccc(Cl)c(F)c1)NC12CCC(NC(=O)COc3ccc(C(F)F)cc3)(CC1)[C@@H](O)C2 [Compound 537, 2-(4-chloro-3-fluorophenoxy)-N-[(3S)-4-{2-[4-(difluoromethyl)phenoxy]acetamido}-3-hydroxybicyclo[2.2.2]octan-1-yl]acetamide] | < 10
O=C(COc1ccc(F)c(F)c1)NC12CCC(NC(=O)COc3ccc(F)cc3)(CC1)C(O)C2 (centres unmarked) [Compound 364, 2-(3,4-difluorophenoxy)-N-{4-[2-(4-fluorophenoxy)acetamido]-3-hydroxybicyclo[2.2.2]octan-1-yl}acetamide] | < 10
CS(=O)(=O)c1ccc(CC(=O)NC23CCC(NC(=O)COc4ccc(Cl)c(F)c4)(CC2)CC3O)cc1 (centres unmarked) [Compound 325, 2-(4-chloro-3-fluorophenoxy)-N-(3-hydroxy-4-{2-[4-(methanesulfonyl)phenyl]acetamido}bicyclo[2.2.2]octan-1-yl)acetamide] | > 2000
O=C(COc1ccc(Cl)c(F)c1)NC12CCC(NC(=O)Cc3cccc(C(F)(F)F)c3)(CC1)C(O)C2 (centres unmarked) [Compound 321, 2-(4-chloro-3-fluorophenoxy)-N-(3-hydroxy-4-{2-[3-(trifluoromethyl)phenyl]acetamido}bicyclo[2.2.2]octan-1-yl)acetamide] | 500 to 2000
O=C(/C=C/c1ccccn1)NC12CC(NC(=O)COc3ccc(Cl)c(F)c3)(C1)C2 [Compound 349, (2E)-N-{3-[2-(4-chloro-3-fluorophenoxy)acetamido]bicyclo[1.1.1]pentan-1-yl}-3-(pyridin-2-yl)prop-2-enamide] | 500 to 2000
O=C(COc1ccc(OC(F)(F)F)c(F)c1)NC12CCC(NC(=O)COc3ccc(F)c(F)c3)(CC1)[C@@H](O)C2 [Compound 763, 2-(3,4-difluorophenoxy)-N-[(2S)-4-{2-[3-fluoro-4-(trifluoromethoxy)phenoxy]acetamido}-2-hydroxybicyclo[2.2.2]octan-1-yl]acetamide] | < 10
O=C(COc1ccc(C(F)(F)F)nc1)NC12CCC(NC(=O)COc3ccc(Cl)c(F)c3)(CC1)C(O)C2 (centres unmarked) [Compound 313, 2-(4-chloro-3-fluorophenoxy)-N-[2-hydroxy-4-(2-{[6-(trifluoromethyl)pyridin-3-yl]oxy}acetamido)bicyclo[2.2.2]octan-1-yl]acetamide] | < 10
O=C(COc1ccc(Cl)c(F)c1)NC12CCC(NC(=O)COc3cnn(CC(F)(F)F)c(=O)c3)(CC1)C(=O)C2 [Compound 317, 2-(4-chloro-3-fluorophenoxy)-N-[3-oxo-4-(2-{[6-oxo-1-(2,2,2-trifluoroethyl)-1,6-dihydropyridazin-4-yl]oxy}acetamido)bicyclo[2.2.2]octan-1-yl]acetamide] | > 2000
O=C(COc1ccc(Cl)c(F)c1)NC12CC(NC(=O)COc3cnn(CC(F)(F)F)c(=O)c3)(C1)C2 [Compound 310, 2-(4-chloro-3-fluorophenoxy)-N-[3-(2-{[6-oxo-1-(2,2,2-trifluoroethyl)-1,6-dihydropyridazin-4-yl]oxy}acetamido)bicyclo[1.1.1]pentan-1-yl]acetamide] | 50 to 250
O=C(COc1ccc(Cl)c(F)c1)NC12CC(NC(=O)CC(=O)c3ccc(Cl)cc3)(C1)C2 [Compound 293, N-{3-[2-(4-chloro-3-fluorophenoxy)acetamido]bicyclo[1.1.1]pentan-1-yl}-3-(4-chlorophenyl)-3-oxopropanamide] | 250 to 500
O=C(COc1cccc(C(F)(F)F)n1)NC12CCC(NC(=O)COc3ccc(Cl)c(F)c3)(CC1)[C@@H](O)C2 [Compound 824, 2-(4-chloro-3-fluorophenoxy)-N-[(2S)-2-hydroxy-4-(2-{[6-(trifluoromethyl)pyridin-2-yl]oxy}acetamido)bicyclo[2.2.2]octan-1-yl]acetamide] | 10 to 50
CC(C)(O)c1ccc(OCC(=O)NC23CC(NC(=O)COc4ccc(Cl)c(F)c4)(C2)C3)cc1 [Compound 407, 2-(4-chloro-3-fluorophenoxy)-N-(3-{2-[4-(2-hydroxypropan-2-yl)phenoxy]acetamido}bicyclo[1.1.1]pentan-1-yl)acetamide] | 50 to 250
COc1ncc(OCC(=O)NC23CCC(NC(=O)COc4ccc(Cl)cc4)(CC2)[C@@H](O)C3)cn1 [Compound 635, 2-(4-chlorophenoxy)-N-[(2S)-2-hydroxy-4-{2-[(2-methoxypyrimidin-5-yl)oxy]acetamido}bicyclo[2.2.2]octan-1-yl]acetamide] | 10 to 50
O=C(COc1ccc(Cl)c(F)c1)NC12CCC(=O)C(NC(=O)COc3ccc(Cl)c(F)c3)(CC1)C2 (centres unmarked) [Compound 671, N,N′-(2-oxobicyclo[3.2.1]octane-1,5-diyl)bis[2-(4-chloro-3-fluorophenoxy)acetamide]] | 500 to 2000
Cc1cccc(CS(=O)(=O)NC23CC(NC(=O)COc4ccc(Cl)c(F)c4)(C2)C3)c1 [Compound 486, 2-(4-chloro-3-fluorophenoxy)-N-(3-{[(3-methylphenyl)methanesulfonyl]amino}bicyclo[1.1.1]pentan-1-yl)acetamide] | > 2000
CCc1ccc(OCC(=O)NC23CCC(NC(=O)COc4ccc(F)c(F)c4)(CC2)[C@@H](O)C3)cc1 [Compound 778, 2-(3,4-difluorophenoxy)-N-{(2S)-4-[2-(4-ethylphenoxy)acetamido]-2-hydroxybicyclo[2.2.2]octan-1-yl}acetamide] | 10 to 50
CCOc1ncc(OCC(=O)NC23CCC(NC(=O)COc4ccc(Cl)c(F)c4)(CC2)[C@@H](O)C3)cn1 [Compound 624, 2-(4-chloro-3-fluorophenoxy)-N-[(2S)-4-{2-[(2-ethoxypyrimidin-5-yl)oxy]acetamido}-2-hydroxybicyclo[2.2.2]octan-1-yl]acetamide] | < 10
Cn1ccc(OCC(=O)NC23CC(NC(=O)COc4ccc(Cl)c(F)c4)(C2)C3)n1 [Compound 381, 2-(4-chloro-3-fluorophenoxy)-N-(3-{2-[(1-methyl-1H-pyrazol-3-yl)oxy]acetamido}bicyclo[1.1.1]pentan-1-yl)acetamide] | 500 to 2000
O=C(COc1ccc2c(c1)OC(F)(F)C(F)(F)O2)NC12CCC(NC(=O)COc3ccc(Cl)c(F)c3)(CC1)[C@@H](O)C2 [Compound 702, 2-(4-chloro-3-fluorophenoxy)-N-[(2S)-2-hydroxy-4-{2-[(2,2,3,3-tetrafluoro-2,3-dihydro-1,4-benzodioxin-6-yl)oxy]acetamido}bicyclo[2.2.2]octan-1-yl]acetamide] | < 10
O=C(COc1ccc(Cl)c(F)c1)NC12CCC(NCCCOc3ccc(Cl)c(F)c3)(CC1)[C@@H](O)C2 [Compound 703, 2-(4-chloro-3-fluorophenoxy)-N-[(3S)-4-{[3-(4-chloro-3-fluorophenoxy)propyl]amino}-3-hydroxybicyclo[2.2.2]octan-1-yl]acetamide] | < 10
O=C(COc1ccc(F)c(F)c1)NC12CC(NC(=O)COc3ccc4c(c3)OC(F)(F)O4)(C1)C2 [Compound 379, 2-[(2,2-difluoro-2H-1,3-benzodioxol-5-yl)oxy]-N-{3-[2-(3,4-difluorophenoxy)acetamido]bicyclo[1.1.1]pentan-1-yl}acetamide] | < 10
O=C(COCc1ccccc1)NC12CC(NC(=O)COc3ccc(Cl)cc3)(C1)C2 [Compound 208, 2-(benzyloxy)-N-{3-[2-(4-chlorophenoxy)acetamido]bicyclo[1.1.1]pentan-1-yl}acetamide] | 50 to 250
O=C(COc1ccc(F)c(Cl)c1)NC12CC(NC(=O)COc3ccc4c(c3)OC(F)(F)O4)(C1)C2 [Compound 591, 2-(3-chloro-4-fluorophenoxy)-N-(3-{2-[(2,2-difluoro-2H-1,3-benzodioxol-5-yl)oxy]acetamido}bicyclo[1.1.1]pentan-1-yl)acetamide] | < 10
CS(=O)(=O)c1ccc(OCC(=O)NC23CCC(NC(=O)COc4ccc(Cl)c(F)c4)(CC2)C[C@@H]3O)cc1 [Compound 504, 2-(4-chloro-3-fluorophenoxy)-N-[(3S)-3-hydroxy-4-{2-[4-(methanesulfonyl)phenoxy]acetamido}bicyclo[2.2.2]octan-1-yl] acetamide] | 50 to 250
